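Briefly, cells in 96-well plates were exposed to five compound concentrations for 48 h, and endpoints were estimated by linear interpolation. GI50 = concentration required for 50% inhibition of growth.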 Calls of active or inactive are those of the source. No stated cut-off is given here; in the data, active = GI50 up to about 1.1 µM and inactive = higher.
Tests used:
Assay in all cases: NCI tumour cell line growth inhibition, 48 h
[1] = tested on: EKVX
[2] = tested on: MDA-MB-435
[3] = tested on: SR
[4] = tested on: U-251
[5] = tested on: A549
[6] = tested on: KM12
[7] = tested on: IGROV-1
[8] = tested on: MOLT-4
[9] = tested on: CCRF-CEM
[10] = tested on: MDA-N
[11] = tested on: SK-MEL-5
[12] = tested on: HOP-62
[13] = tested on: 786-0
[14] = tested on: SF-295
[15] = tested on: Malme-3M
[16] = tested on: MDA-MB-231
[17] = tested on: M14
[18] = tested on: SW-620
[19] = tested on: HCT-15
[20] = tested on: NCI-H226
[21] = tested on: SF-268
[22] = tested on: ACHN
[23] = tested on: HOP-92
[24] = tested on: RXF 393
[25] = tested on: Hs-578T
[26] = tested on: RPMI-8226
[27] = tested on: SK-MEL-2
[28] = tested on: SN12C
[29] = tested on: HCT-116
[30] = tested on: T47D
[31] = tested on: K562
[32] = tested on: PC-3
[33] = tested on: UACC-62
[34] = tested on: HCC 2998
[35] = tested on: NCI/ADR-RES
[36] = tested on: HL-60
[37] = tested on: A498
[38] = tested on: OVCAR-3
[39] = tested on: TK-10
[40] = tested on: DU-145
[41] = tested on: NCI-H460
[42] = tested on: UO-31
[43] = tested on: NCI-H23
[44] = tested on: LOX IMVI
[45] = tested on: UACC-257
[46] = tested on: BT-549
[47] = tested on: HT-29
[48] = tested on: NCI-H522
[49] = tested on: SNB-19
[50] = tested on: OVCAR-8
[51] = tested on: SK-MEL-28
[52] = tested on: OVCAR-5
[53] = tested on: SNB-75
[54] = tested on: CAKI-1
[55] = tested on: SK-OV-3
[56] = tested on: SF-539
[57] = tested on: COLO 205
[58] = tested on: MCF7
[59] = tested on: OVCAR-4

Question: What does the source list for `Cc1cc(Cl)nc(NC(=O)CSc2ccc(Cl)cc2)n1`?
Answer: GI50 [1]: > 100 µM (inactive); GI50 [2]: > 100 µM (inactive); GI50 [3]: > 100 µM (inactive); GI50 [4]: > 100 µM (inactive); GI50 [5]: > 100 µM (inactive); GI50 [6]: > 100 µM (inactive); GI50 [7]: > 100 µM (inactive); GI50 [8]: > 100 µM (inactive); GI50 [9]: > 100 µM (inactive); GI50 [10]: > 100 µM (inactive); GI50 [11]: > 100 µM (inactive); GI50 [12]: 79.1 µM (inactive); GI50 [13]: > 100 µM (inactive); GI50 [14]: > 100 µM (inactive); GI50 [15]: 64.7 µM (inactive); GI50 [16]: > 100 µM (inactive); GI50 [17]: > 100 µM (inactive); GI50 [18]: > 100 µM (inactive); GI50 [19]: > 100 µM; GI50 [20]: 22.1 µM (inactive); GI50 [21]: > 100 µM (inactive); GI50 [22]: > 100 µM (inactive); GI50 [23]: > 100 µM (inactive); GI50 [24]: > 100 µM (inactive); GI50 [25]: 77.6 µM (inactive); GI50 [26]: 38.6 µM (inactive); GI50 [27]: > 100 µM (inactive); GI50 [28]: > 100 µM (inactive); GI50 [29]: > 100 µM (inactive); GI50 [30]: > 100 µM (inactive); GI50 [31]: > 100 µM (inactive); GI50 [32]: > 100 µM (inactive); GI50 [33]: > 100 µM (inactive); GI50 [34]: > 100 µM (inactive); GI50 [35]: > 100 µM (inactive); GI50 [36]: > 100 µM (inactive); GI50 [37]: 72.9 µM (inactive); GI50 [38]: > 100 µM (inactive); GI50 [39]: > 100 µM (inactive); GI50 [40]: > 100 µM (inactive); GI50 [41]: > 100 µM (inactive); GI50 [42]: > 100 µM (inactive); GI50 [43]: > 100 µM (inactive); GI50 [44]: > 100 µM (inactive); GI50 [45]: > 100 µM (inactive); GI50 [46]: > 100 µM (inactive); GI50 [47]: > 100 µM (inactive); GI50 [48]: 95.7 µM (inactive); GI50 [49]: > 100 µM (inactive); GI50 [50]: > 100 µM (inactive); GI50 [51]: > 100 µM (inactive); GI50 [52]: > 100 µM (inactive)

Question: Which results are given for `CC(C)=NNc1cnnc2ccc([N+](=O)[O-])cc12`?
Answer: GI50 [1]: > 100 µM (inactive); GI50 [2]: 67.8 µM (inactive); GI50 [3]: 30.3 µM (inactive); GI50 [4]: > 100 µM (inactive); GI50 [5]: > 100 µM (inactive); GI50 [6]: > 100 µM (inactive); GI50 [7]: 21.4 µM (inactive); GI50 [8]: 37.2 µM (inactive); GI50 [53]: 58.9 µM (inactive); GI50 [9]: 32.9 µM (inactive); GI50 [10]: 47.2 µM (inactive); GI50 [54]: 52 µM (inactive); GI50 [55]: > 100 µM (inactive); GI50 [11]: 55.3 µM (inactive); GI50 [13]: 51.3 µM (inactive); GI50 [14]: > 100 µM (inactive); GI50 [15]: 63.8 µM (inactive); GI50 [16]: 59.7 µM (inactive); GI50 [17]: 78 µM (inactive); GI50 [18]: > 100 µM (inactive); GI50 [19]: 57.5 µM; GI50 [56]: > 100 µM (inactive); GI50 [20]: > 100 µM (inactive); GI50 [21]: > 100 µM (inactive); GI50 [22]: 23.9 µM (inactive); GI50 [23]: > 100 µM (inactive); GI50 [24]: > 100 µM (inactive); GI50 [25]: > 100 µM (inactive); GI50 [26]: 31.6 µM (inactive); GI50 [27]: > 100 µM (inactive); GI50 [28]: 36.1 µM (inactive); GI50 [29]: 59.6 µM (inactive); GI50 [57]: 36.6 µM (inactive); GI50 [30]: 65.2 µM (inactive); GI50 [32]: > 100 µM (inactive); GI50 [35]: > 100 µM (inactive); GI50 [36]: 16.3 µM (inactive); GI50 [40]: > 100 µM (inactive); GI50 [41]: 33.3 µM (inactive); GI50 [42]: 35.2 µM (inactive); GI50 [43]: > 100 µM (inactive); GI50 [45]: > 100 µM (inactive); GI50 [46]: > 100 µM (inactive); GI50 [47]: > 100 µM (inactive); GI50 [48]: 15.5 µM (inactive); GI50 [49]: > 100 µM (inactive); GI50 [50]: > 100 µM (inactive); GI50 [58]: 57.8 µM (inactive); GI50 [52]: > 100 µM (inactive)

Question: `O=c1cccc(C2CC(CO)C3CCCCN3C2)[nH]1` (stereo unspecified) was tested. Which GI50 [1] did it give?
Answer: Its GI50 is > 100 µM (inactive).

Question: And the GI50 [2]?
Answer: Its GI50 is > 100 µM (inactive).

Question: And the GI50 [4]?
Answer: Its GI50 is > 100 µM (inactive).

Question: What about the GI50 [5] of the same molecule?
Answer: Its GI50 is > 100 µM (inactive).

Question: And the GI50 [6]?
Answer: The GI50 was > 100 µM (inactive).

Question: And the GI50 [7]?
Answer: Its GI50 is > 100 µM (inactive).

Question: And the GI50 [8]?
Answer: Its GI50 is > 100 µM (inactive).

Question: What about the GI50 [53] of the same molecule?
Answer: Its GI50 is 86.9 µM (inactive).

Question: And the GI50 [9]?
Answer: Its GI50 is > 100 µM (inactive).

Question: What about the GI50 [10] of the same molecule?
Answer: The GI50 was > 100 µM (inactive).

Question: What about the GI50 [54] of the same molecule?
Answer: The GI50 was > 100 µM (inactive).

Question: And the GI50 [55]?
Answer: Its GI50 is > 100 µM (inactive).

Question: What about the GI50 [11] of the same molecule?
Answer: Its GI50 is > 100 µM (inactive).

Question: And the GI50 [13]?
Answer: The GI50 was > 100 µM (inactive).

Question: And the GI50 [14]?
Answer: Its GI50 is > 100 µM (inactive).

Question: And the GI50 [16]?
Answer: The GI50 was > 100 µM (inactive).

Question: What about the GI50 [17] of the same molecule?
Answer: The GI50 was > 100 µM (inactive).

Question: What about the GI50 [18] of the same molecule?
Answer: The GI50 was > 100 µM (inactive).

Question: What about the GI50 [19] of the same molecule?
Answer: The GI50 was > 100 µM.

Question: What about the GI50 [56] of the same molecule?
Answer: The GI50 was > 100 µM (inactive).

Question: What about the GI50 [20] of the same molecule?
Answer: Its GI50 is > 100 µM (inactive).

Question: And the GI50 [21]?
Answer: The GI50 was > 100 µM (inactive).

Question: What about the GI50 [22] of the same molecule?
Answer: The GI50 was > 100 µM (inactive).

Question: What about the GI50 [23] of the same molecule?
Answer: The GI50 was > 100 µM (inactive).

Question: What about the GI50 [25] of the same molecule?
Answer: Its GI50 is > 100 µM (inactive).

Question: And the GI50 [26]?
Answer: The GI50 was > 100 µM (inactive).

Question: What about the GI50 [27] of the same molecule?
Answer: Its GI50 is > 100 µM (inactive).

Question: What about the GI50 [28] of the same molecule?
Answer: The GI50 was > 100 µM (inactive).

Question: And the GI50 [29]?
Answer: Its GI50 is > 100 µM (inactive).

Question: What about the GI50 [57] of the same molecule?
Answer: Its GI50 is > 100 µM (inactive).

Question: And the GI50 [30]?
Answer: The GI50 was > 100 µM (inactive).

Question: And the GI50 [31]?
Answer: The GI50 was > 100 µM (inactive).

Question: And the GI50 [32]?
Answer: The GI50 was > 100 µM (inactive).

Question: What about the GI50 [33] of the same molecule?
Answer: Its GI50 is > 100 µM (inactive).

Question: What about the GI50 [59] of the same molecule?
Answer: The GI50 was > 100 µM (inactive).

Question: What about the GI50 [34] of the same molecule?
Answer: The GI50 was > 100 µM (inactive).

Question: And the GI50 [35]?
Answer: Its GI50 is > 100 µM (inactive).

Question: What about the GI50 [36] of the same molecule?
Answer: Its GI50 is > 100 µM (inactive).

Question: And the GI50 [37]?
Answer: The GI50 was > 100 µM (inactive).

Question: What about the GI50 [38] of the same molecule?
Answer: Its GI50 is > 100 µM (inactive).

Question: What about the GI50 [39] of the same molecule?
Answer: The GI50 was > 100 µM (inactive).

Question: What about the GI50 [40] of the same molecule?
Answer: Its GI50 is > 100 µM (inactive).

Question: And the GI50 [41]?
Answer: The GI50 was > 100 µM (inactive).

Question: And the GI50 [42]?
Answer: The GI50 was > 100 µM (inactive).

Question: What about the GI50 [43] of the same molecule?
Answer: The GI50 was > 100 µM (inactive).

Question: What about the GI50 [44] of the same molecule?
Answer: Its GI50 is > 100 µM (inactive).

Question: And the GI50 [45]?
Answer: Its GI50 is > 100 µM (inactive).

Question: What about the GI50 [46] of the same molecule?
Answer: The GI50 was > 100 µM (inactive).

Question: What about the GI50 [47] of the same molecule?
Answer: The GI50 was > 100 µM (inactive).

Question: What about the GI50 [48] of the same molecule?
Answer: The GI50 was > 100 µM (inactive).

Question: And the GI50 [49]?
Answer: The GI50 was > 100 µM (inactive).

Question: And the GI50 [50]?
Answer: Its GI50 is > 100 µM (inactive).

Question: What about the GI50 [51] of the same molecule?
Answer: Its GI50 is > 100 µM (inactive).

Question: What about the GI50 [58] of the same molecule?
Answer: The GI50 was > 100 µM (inactive).

Question: And the GI50 [52]?
Answer: Its GI50 is > 100 µM (inactive).

From ChEMBL document CHEMBL1201862, “PubChem BioAssay data set” (2004)
